Converted amounts (≈) assume the structure as drawn.

From US9233978B2, “6-fused heteroaryldihydropyrimidines for the treatment and prophylaxis of hepatitis B virus infection” (Hoffmann-La Roche Inc., priority 2014, dated 2016) come the findings set out here.

The test system of one series is HepDE19 cells. The series is described as follows: Cytotoxicity in HepDE19 cells (CCK-8) and selectivity index. It counts as cell-based. The note with it: CC50 (HepDE19) value / EC50 (HepG2.2.15) value. An excerpt:
(§1) HepG2.2.15 and HepDE19 are stably-transfected cell lines containing the HBV genome. Both cell lines are derived from the hepatoblastoma cell line Hep G2 (American Type Culture Collection, ATCC® HB-8065™) by the published procedures described in references: MA Selles et al. Proc. Natl. Acad. Sci. USA 1987, 84, 1005-1009 and H Guo et al. Journal of Virology 2007, 81, 12472-12484, respectively. Both cell lines were maintained in Dulbecco's modified Eagle's medium (DMEM)-F12 medium supplemented with 10% fetal bovine serum, 100 U/mL penicillin, 100 μg/mL streptomycin, and 0.5 mg/mL of G418.
(§2) HepDE19 cells were seeded into 96-well plates (5×10^3 cells per well) and treated with compounds for EC50 determination. Five days after treatment, cell viability was measured by addition of 20 μL of CCK-8 reagent. Two hours after incubation at 37° C., the absorbance at wavelengths of 450 nm and 630 nm (OD450 and OD630) was recorded by a plate reader. The concentration results in the death of 50% of the host cells (CC50) of each compound were determined.
(§3) The relative effectiveness of the compound in inhibiting viral replication compared to inducing cell death was defined as the selectivity index (CC50 value/EC50 value). Based on CC50 and EC50 data, selectivity indexes were determined.

Experiment in series [1]: as above
It is filed as cell-based. The note with it: human, HepDE19 cells; CCK-8 cell viability; five days after treatment.
Source text: as §1, §2, §3

The subject of another series is HBV. The series is described as follows: Anti-HBV activity in vitro, HepG2.2.15 cells, extracellular HBV DNA by qPCR. It counts as cell-based. The note with it: Hepatitis B virus, HepG2.2.15, 120 h, HepG2.2.15 cells; HBV replication inhibited by 50%, extracellular HBV DNA by qPCR; five days after compound treatment; read-out: EC50. Summed up:
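HBV-producing HepG2.2.15 cells were seeded and left overnight at 37 °C, then treated with half-log serial compound dilutions at a final 0.5% DMSO. After 5 days, viral DNA was extracted from the supernatant and extracellular HBV DNA was quantified by qPCR.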

A further series can be described thus: Lysa solubility. It counts as physicochemical. As to conditions: 0.05 M phosphate buffer (pH 6.5); for solubility thermodynamic: phosphate buffer, pH 6.5, aqueous buffer, thermodynamic from solid. The method in brief:
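Duplicate samples dried from 10 mM DMSO stocks, taken up in 0.05 M phosphate buffer pH 6.5, stirred 1 h, shaken 2 h and left overnight. Filtrate and 1/10 dilution quantified by direct UV or HPLC-UV, in μg/mL; above 80% of the calculated maximum, reported as greater than that value.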

Series [2] can be described thus: Human microsomal metabolic stability. The note with it: human microsomes 0.5 mg/mL, 1 μM test compound, NADPH, 37° C., pH 7.4, 0-30 minutes. It counts as in vitro ADME. The method in brief: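 1 μM compound with 0.5 mg/mL human liver microsomal protein in 100 mM phosphate pH 7.4 at 37° C, started with 1 mM NADPH or a NADPH-regenerating system. Sampled at 0–30 min, quenched in cold methanol with tolbutamide internal standard; remaining parent quantified by LC-MS/MS.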

As for `COC(=O)C1=C(CN2CCN3C(=O)N(CC4(C(=O)O)CC4)C[C@@H]3C2)NC(c2nccs2)=N[C@H]1c1ccc(F)cc1Cl` [Example 35, 1-[[(8aS)-7-[[(4R)-4-(2-chloro-4-fluoro-phenyl)-5-methoxycarbonyl-2-thiazol-2-yl-1,4-dihydropyrimidin-6-yl]methyl]-3-oxo-5,6,8,8a-tetrahydro-1H-imidazo[1,5-a]pyrazin-2-yl]methyl]cyclopropanecarboxylic acid], in the series with HepDE19 cells, the “Selectivity index (CC50/EC50)” value was more than 9259. This molecule had a cytotoxic concentration (CC50) at 5 days in series [1] of more than 100000 nM. Besides, the EC50 with HBV was found to be 11 nM. The molecule further came in with a solubility (thermodynamic) in the series “Lysa solubility” of more than 754 µg/mL. For the same molecule, the “Human Microsomal Clearance” value in series [2] was 0.3 mL/min/kg.

Regarding `COC(=O)C1=C(CN2CCN3C(=O)N(C4CC4)C[C@@H]3[C@H]2C(=O)O)NC(c2nccs2)=N[C@H]1c1ccc(F)c(F)c1C` (single isomer, unassigned) [Example 83B], the “Selectivity index (CC50/EC50)” value in the series on HepDE19 cells was more than 11111. Besides, in series [1], the CC50 at 5 days was more than 100000 nM. In the series with HBV, the EC50 amounted to 9 nM. Also, the “Lysa” value in the series “Lysa solubility” came out at 780 µg/mL. In series [2], the “Human Microsomal Clearance” value turned out to be 2.9 mL/min/kg.

As for `COC(=O)C1=C(CN2CCN3C(=O)N(CC(C)(C)C(=O)O)C[C@@H]3C2)NC(c2nccs2)=N[C@H]1c1cccc(F)c1Cl` [Example 41, 3-[(8aS)-7-[[(4R)-4-(2-chloro-3-fluoro-phenyl)-5-methoxycarbonyl-2-thiazol-2-yl-1,4-dihydropyrimidin-6-yl]methyl]-3-oxo-5,6,8,8a-tetrahydro-1H-imidazo[1,5-a]pyrazin-2-yl]-2,2-dimethyl-propanoic acid], the “Selectivity index (CC50/EC50)” value with HepDE19 cells was more than 7194. For the same molecule, the CC50 at 5 days in series [1] was more than 100000 nM. For the same molecule, the EC50 in the series with HBV came out at 14 nM. In “Lysa solubility”, the solubility (thermodynamic) was more than 804 µg/mL. The “Human Microsomal Clearance” value in series [2] worked out at 2.0 mL/min/kg.

Regarding `CCOC(=O)C1=C(CN2CCN3C(=O)N(CC4CC(C(=O)O)C4)C[C@@H]3C2)NC(c2nccs2)=N[C@H]1c1cccc(F)c1Cl` (stereo partly drawn) [Example 81, 3-[[(8aS)-7-[[(4R)-4-(2-chloro-3-fluoro-phenyl)-5-ethoxycarbonyl-2-thiazol-2-yl-1,4-dihydropyrimidin-6-yl]methyl]-3-oxo-5,6,8,8a-tetrahydro-1H-imidazo[1,5-a]pyrazin-2-yl]methyl]cyclobutanecarboxylic acid], the “Selectivity index (CC50/EC50)” value in the series with HepDE19 cells turned out to be 8500. For the same molecule, the CC50 at 5 days in series [1] came to 85000 nM. The EC50 in the series on HBV amounted to 10 nM. The solubility (thermodynamic) in the series “Lysa solubility” was determined as 279 µg/mL (≈ 442 µM). Besides, in series [2], the “Human Microsomal Clearance” value came to 0.1 mL/min/kg.

Turning to `COC(=O)C1=C(CN2CCN3C(=O)N(C4CCC(C(=O)O)C4)C[C@@H]3C2)NC(c2nccs2)=N[C@H]1c1ccc(F)cc1Cl` (mixture of isomers) [Example 61, (R)-6-[(S)-2-((1R,3S)-3-Carboxy-cyclopentyl)-3-oxo-hexahydro-imidazo[1,5-a]pyrazin-7-ylmethyl]-4-(2-chloro-4-fluoro-phenyl)-2-thiazol-2-yl-1,4-dihydro-pyrimidine-5-carboxylic acid methyl ester and (R)-6-[(S)-2-((1S,3R)-3-Carboxy-cyclopentyl)-3-oxo-hexahydro-imidazo[1,5-a]pyrazin-7-ylmethyl]-4-(2-chloro-4-fluoro-phenyl)-2-thiazol-2-yl-1,4-dihydro-pyrimidine-5-carboxylic acid methyl ester], the “Selectivity index (CC50/EC50)” value in the series with HepDE19 cells is reported as more than 8333. For the same molecule, the CC50 at 5 days in series [1] was more than 100000 nM. In addition, in the series on HBV, the EC50 stood at 12 nM. This molecule also showed a solubility (thermodynamic) in “Lysa solubility” of more than 742 µg/mL. Also, the “Human Microsomal Clearance” value in series [2] is 0.4 mL/min/kg.

Consider `COC(=O)C1=C(CN2CCN3C(=O)N(C4CC5(CC(C(=O)O)C5)C4)C[C@@H]3C2)NC(c2nccs2)=N[C@H]1c1ccc(F)cc1Cl` (stereo partly drawn) [Example 79, 2-[(8aS)-7-[[(4R)-4-(2-chloro-4-fluoro-phenyl)-5-methoxycarbonyl-2-thiazol-2-yl-1,4-dihydropyrimidin-6-yl]methyl]-3-oxo-5,6,8,8a-tetrahydro-1H-imidazo[1,5-a]pyrazin-2-yl]spiro[3.3]heptane-6-carboxylic acid], for which the “Selectivity index (CC50/EC50)” value in the series with HepDE19 cells came to 6500. Also, in series [1], it took 52000 nM to reach half-maximal cytotoxicity (CC50 at 5 days). The EC50 in the series with HBV was determined as 8 nM. The molecule further came in with a solubility (thermodynamic) in “Lysa solubility” of 180 µg/mL (≈ 280 µM). The “Human Microsomal Clearance” value in series [2] is 3.6 mL/min/kg.

As to `CCOC(=O)C1=C(CN2CCN3C(=O)N(CC4(C(=O)O)CCC4)C[C@@H]3C2)NC(c2nccs2)=N[C@H]1c1cccc(F)c1Cl` [Example 60, 6-[(S)-2-(1-Carboxy-cyclobutylmethyl)-3-oxo-hexahydro-imidazo[1,5-a]pyrazin-7-ylmethyl]-4-((R)-2-chloro-3-fluoro-phenyl)-2-thiazol-2-yl-1,4-dihydro-pyrimidine-5-carboxylic acid ethyl ester], in the series on HepDE19 cells, the “Selectivity index (CC50/EC50)” value is 11333. In addition, in series [1], the 50% cytotoxic concentration (CC50) at 5 days was 68000 nM. Besides, the EC50 with HBV turned out to be 6 nM. The thermodynamic solubility in “Lysa solubility” is 436 µg/mL (≈ 691 µM).

With `COC(=O)C1=C(CN2CCN3C(=O)N(CC(C)(C)C(=O)O)C[C@@H]3C2)NC(c2nccs2)=N[C@H]1c1cccc(F)c1C` [Example 44, 3-[(8aS)-7-[[(4S)-4-(3-fluoro-2-methyl-phenyl)-5-methoxycarbonyl-2-thiazol-2-yl-1,4-dihydropyrimidin-6-yl]methyl]-3-oxo-5,6,8,8a-tetrahydro-1H-imidazo[1,5-a]pyrazin-2-yl]-2,2-dimethyl-propanoic acid], the “Selectivity index (CC50/EC50)” value in the series with HepDE19 cells is reported as more than 6369. In series [1], this molecule came in with a CC50 at 5 days of more than 100000 nM. For the same molecule, the half-maximal effective concentration (EC50) with HBV is 16 nM. The same molecule showed a solubility (thermodynamic) in “Lysa solubility” of 207 µg/mL (≈ 354 µM). Further, the “Human Microsomal Clearance” value in series [2] is reported as 1.7 mL/min/kg.

As to `COC(=O)C1=C(CN2CCN3C(=O)N(C(C)C)C[C@@H]3[C@H]2C(=O)O)NC(c2nccs2)=N[C@H]1c1ccc(F)c(F)c1C` (single isomer, unassigned) [Example 85B], in the series on HepDE19 cells, the “Selectivity index (CC50/EC50)” value was more than 16667. For the same molecule, the 50% cytotoxic concentration (CC50) at 5 days in series [1] is more than 100000 nM. Besides, the EC50 in the series with HBV was 6 nM. Also, in “Lysa solubility”, the “Lysa” value is 770 µg/mL.

Turning to `CCOC(=O)C1=C(CN2CCN3C(=O)N(Cc4ccc(C(=O)O)cc4)CC3C2)NC(c2nccs2)=N[C@H]1c1cccc(F)c1Cl` (stereo partly drawn) [Example 66, (R)-6-[2-(4-Carboxy-benzyl)-3-oxo-hexahydro-imidazo[1,5-a]pyrazin-7-ylmethyl]-4-(2-chloro-3-fluoro-phenyl)-2-thiazol-2-yl-1,4-dihydro-pyrimidine-5-carboxylic acid ethyl ester], the “Selectivity index (CC50/EC50)” value in the series with HepDE19 cells was 15000. This molecule displayed a CC50 at 5 days in series [1] of 60000 nM. Further, the EC50 in the series with HBV came to 4 nM. Besides, the “Human Microsomal Clearance” value in series [2] is 7.1 mL/min/kg.

For `CCOC(=O)C1=C(CN2CCN3C(=O)N(CC(C)C)C[C@@H]3[C@H]2C(=O)O)NC(c2nccs2)=N[C@H]1c1cccc(F)c1Cl` (single isomer, unassigned) [Example 101B], the “Selectivity index (CC50/EC50)” value with HepDE19 cells is on record as more than 100000. In addition, in series [1], the CC50 at 5 days was more than 100000 nM. Moreover, the EC50 with HBV stood at 0.8 nM. Moreover, the “Human Microsomal Clearance” value in series [2] is 6.1 mL/min/kg.

`CCOC(=O)C1=C(CN2CCN3C(=O)N(C(C)C)C[C@@H]3[C@H]2C(=O)O)NC(c2nccs2)=N[C@H]1c1cccc(F)c1Cl` (single isomer, unassigned) [Example 84B]: the “Selectivity index (CC50/EC50)” value in the series on HepDE19 cells is listed as more than 100000. Further, in series [1], the CC50 at 5 days is more than 100000 nM. In addition, the EC50 in the series with HBV is 1 nM. For the same molecule, in “Lysa solubility”, the “Lysa” value came to 770 µg/mL. Also, in series [2], the “Human Microsomal Clearance” value is on record as 3.6 mL/min/kg.
